In the supplement of paper PMC10307832:

Assays:
Experiment in all cases: relative viability (nuclei count vs DMSO), 5 days (fraction); higher = more cells survive
BI-2536 + Palbociclib = compound: CC[C@@H]1C(=O)N(C)c2cnc(Nc3ccc(C(=O)NC4CCN(C)CC4)cc3OC)nc2N1C1CCCC1 [BI-2536] + CC(=O)c1c(C)c2cnc(Nc3ccc(N4CCNCC4)cn3)nc2n(C2CCCC2)c1=O [Palbociclib] (partner 0.5 µM)
Summary of the method: (§1)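 Lung cancer cell lines were pin-tool dosed in 1536-well plates on the day after seeding, with either a lone drug or a fixed anchor-drug dose plus five library-drug doses (not always all listed) in √10 steps. Nuclei were counted on 4× images after 5 days. Relative viability is the ratio of treated-well to vehicle-well nuclei counts, with each value a median of duplicate plates.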

BI-2536 + Pictilisib = compound: CC[C@@H]1C(=O)N(C)c2cnc(Nc3ccc(C(=O)NC4CCN(C)CC4)cc3OC)nc2N1C1CCCC1 [BI-2536] + CS(=O)(=O)N1CCN(Cc2cc3nc(-c4cccc5[nH]ncc45)nc(N4CCOCC4)c3s2)CC1 [Pictilisib] (partner 1 µM)
Summary of the method: as §1

[1] = compound: CC1CC(=O)N(C2=CN=C(N=C2N1C3CCCC3)NC4=C(C=C(C=C4)C(=O)NC5CCN(CC5)C)OC)C [NPK76-II-72-1] + CC(=O)c1c(C)c2cnc(Nc3ccc(N4CCNCC4)cn3)nc2n(C2CCCC2)c1=O [Palbociclib] (partner 0.5 µM)
Summary of the method: as §1

BI-2536 + Olaparib = compound: CC[C@@H]1C(=O)N(C)c2cnc(Nc3ccc(C(=O)NC4CCN(C)CC4)cc3OC)nc2N1C1CCCC1 [BI-2536] + O=C(c1cc(Cc2n[nH]c(=O)c3ccccc23)ccc1F)N1CCN(C(=O)C2CC2)CC1 [Olaparib] (partner 8 µM)
Summary of the method: as §1

Cell Line | relative viability (BI-2536 + Palbociclib; first compound 0.01 µM) | relative viability (BI-2536 + Palbociclib; first compound 0.03162 µM) | relative viability (BI-2536 + Palbociclib; first compound 0.1 µM) | relative viability (BI-2536 + Palbociclib; first compound 0.3162 µM) | relative viability (BI-2536 + Palbociclib; first compound 1 µM) | relative viability (BI-2536 + Pictilisib; first compound 0.01 µM) | relative viability (BI-2536 + Pictilisib; first compound 0.03162 µM) | relative viability (BI-2536 + Pictilisib; first compound 0.1 µM) | relative viability (BI-2536 + Pictilisib; first compound 0.3162 µM) | relative viability (BI-2536 + Pictilisib; first compound 1 µM) | relative viability ([1]; first compound 0.01 µM) | relative viability ([1]; first compound 0.03162 µM) | relative viability ([1]; first compound 0.1 µM) | relative viability ([1]; first compound 0.3162 µM) | relative viability ([1]; first compound 1 µM) | relative viability (BI-2536 + Olaparib; first compound 0.01 µM) | relative viability (BI-2536 + Olaparib; first compound 0.03162 µM) | relative viability (BI-2536 + Olaparib; first compound 0.1 µM) | relative viability (BI-2536 + Olaparib; first compound 0.3162 µM) | relative viability (BI-2536 + Olaparib; first compound 1 µM)
HCC-44 | 1.05 | 0.959 | 0.947 | 0.404 | 0.312 | 0.68 | 0.769 | 0.257 | 0.0696 | 0.0951 | 0.982 | 1.08 | 0.993 | 0.935 | 1.01 | 1.05 | 1 | 0.952 | 0.378 | 0.33
HCC-78 | 0.566 | 0.475 | 0.431 | 0.436 | 0.318 | 0.26 | 0.25 | 0.166 | 0.13 | 0.0467 | 0.423 | 0.44 | 0.425 | 0.385 | 0.502 | 0.783 | 0.904 | 0.774 | 0.47 | 0.204
HCC-366 | 0.364 | 0.389 | 0.225 | 0.0306 | 0.0265 | 0.144 | 0.179 | 0.0833 | 0.0304 | 0.0488 | 0.386 | 0.438 | 0.386 | 0.363 | 0.458 | 0.323 | 0.368 | 0.21 | 0.0235 | 0.0223
HCC-827 | 0.467 | 0.435 | 0.467 | 0.267 | 0.186 | 0.917 | 1.02 | 0.976 | 0.533 | 0.339 | 0.474 | 0.457 | 0.488 | 0.491 | 0.561 | 0.693 | 0.611 | 0.531 | 0.214 | 0.194
HOP-62 | 0.421 | 0.409 | 0.443 | 0.17 | 0.143 | 0.704 | 0.965 | 0.159 | 0.0849 | 0.127 | 0.397 | 0.458 | 0.462 | 0.438 | 0.511 | – | 0.309 | 0.191 | 0.101 | 0.089
IA-LM | – | – | – | – | – | 0.346 | 0.264 | 0.0753 | 0.0992 | 0.0622 | – | – | – | – | – | 0.763 | 0.752 | 0.402 | 0.101 | 0.102
LC-2-ad | 0.526 | 0.379 | 0.361 | 0.234 | 0.248 | 0.552 | 0.192 | 0.0937 | 0.0909 | 0.0871 | 0.491 | 0.508 | 0.537 | 0.498 | 0.475 | 0.705 | 0.621 | 0.24 | 0.205 | 0.205
LCLC-97TM1 | 0.225 | 0.203 | 0.144 | 0.107 | 0.0769 | 0.182 | 0.185 | 0.127 | 0.11 | 0.0962 | 0.196 | 0.215 | 0.209 | 0.211 | 0.203 | 0.463 | 0.292 | 0.233 | 0.0868 | 0.0916
LCLC-103H | 0.473 | 0.508 | 0.421 | 0.371 | 0.294 | 0.585 | 0.568 | 0.508 | 0.711 | 0.144 | – | 0.501 | 0.501 | 0.565 | 0.484 | 0.742 | 0.86 | 0.77 | 0.358 | 0.216
LK-2 | 0.586 | 0.525 | 0.464 | 0.15 | 0.106 | 0.569 | 0.389 | 0.375 | 0.196 | 0.297 | 0.624 | 0.636 | 0.668 | 0.653 | 0.565 | 0.578 | 0.491 | 0.28 | 0.098 | 0.134
LOU-NH91 | 0.477 | 0.51 | 0.472 | 0.331 | 0.317 | 0.545 | 0.516 | 0.474 | 0.284 | 0.276 | 0.538 | 0.52 | 0.496 | 0.52 | 0.528 | 0.934 | 0.728 | 0.612 | 0.336 | 0.28
LU99A | 0.37 | 0.445 | 0.318 | 0.152 | 0.147 | 0.308 | 0.301 | 0.14 | 0.128 | 0.138 | 0.404 | 0.437 | 0.425 | 0.393 | 0.443 | 0.23 | 0.24 | 0.192 | 0.137 | 0.149
NCI-H522 | 1 | 0.922 | 1.13 | 0.4 | 0.303 | – | – | – | – | – | 0.866 | 1.02 | 0.981 | – | 1.1 | 0.655 | 0.594 | 0.689 | 0.364 | 0.316
NCI-H596 | – | – | – | – | – | 0.376 | 0.293 | 0.198 | 0.215 | 0.205 | – | – | – | – | – | 0.731 | 0.731 | 0.59 | 0.423 | 0.295
NCI-H1299 | – | – | – | – | – | 0.708 | 0.351 | 0.154 | 0.0991 | 0.0448 | – | – | – | – | – | 1.01 | 0.907 | 0.828 | 0.237 | 0.221
NCI-H1563 | – | – | – | – | – | 0.699 | 0.61 | 0.558 | 0.578 | 0.511 | – | – | – | – | – | – | – | – | – | –
NCI-H1648 | 0.288 | 0.131 | 0.251 | 0.229 | 0.29 | – | – | – | – | – | 0.23 | 0.269 | 0.24 | 0.266 | 0.279 | 0.794 | 0.887 | 0.545 | 0.23 | 0.275
NCI-H1703 | – | – | – | – | – | 0.244 | 0.239 | 0.137 | 0.174 | 0.131 | – | – | – | – | – | 0.426 | 0.315 | 0.209 | 0.102 | 0.111
NCI-H2342 | – | 0.553 | 0.542 | 0.394 | 0.397 | – | – | – | – | – | 0.487 | 0.468 | 0.47 | 0.508 | 0.541 | – | 0.424 | 0.367 | 0.319 | 0.26
SW 900 | 0.549 | 0.487 | 0.471 | 0.313 | 0.219 | – | – | – | – | – | 0.53 | 0.632 | 0.464 | 0.441 | 0.584 | 0.804 | 1.05 | 0.691 | 0.215 | 0.153
